Literature values, collected in patent US20090105195A1, “COMPOSITION COMPRISING MICROBICIDAL ACTIVE INGREDIENTS” (priority 2007, published 2009).

Legend:
Details in all cases: at low amounts, such as 0.025%
[1] = tested on: Human Immunodeficiency Virus
[2] = tested on: Herpes Simplex Virus
[3] = tested on: Human Papilloma Virus (HPV)

CCCCCCCCCCCCOS(=O)(=O)[O-].[Na+] [SLS, sodium lauryl sulfate]
complete inactivation: inactivation of Human Immunodeficiency Virus [1] | inactivation of Herpes Simplex Virus [2] | inactivation of Human Papilloma Virus (HPV) [3]
